Measurements reported in US20230279132A1, “TREATMENT OF B CELL MALIGNANCIES” (NOVARTIS AG, priority 2020, published 2023).
Where two headings read alike, the source gives them in different places.

Tests used:
MCL = conditions: cited from earlier work; for response rates: relapsed MCL, targeted therapies
SUDHL4 cells = assay: in vitro ADCC assay (Calcein AM-labeled SUDHL4 cells) with PBMC, pNK or NK3.3 effector cells; type: cell-based; conditions: for improvement in VAY736-induced ADCC with lenalidomide: 72 hr lenalidomide treatment
Description: NK3.3 cells were collected, washed 1×, and incubated in starvation media with or without 3 uM lenalidomide. Cells were incubated for 48 hrs or 72 hrs, collected, spun down, and resuspended in assay buffer. 100 μl of NK3.3 cells at the designated E:T ratios were transferred to a 96 well plate with SUDHL4 cells and antibodies. The co-culture was incubated for 2 hrs.
(§1) Frozen PBMC were thawed, or fresh PBMCs were isolated. If T cells were depleted, PBMC were used for a positive depletion of CD3 using CD3 beads (Miltenyi #130-050-101). Cells were washed 1×, and incubated in unstimulated media (phenol red free/glutamax/hepes/anti-penicillin anti-streptomycin/FBS) with or without 3 μM, 1 μM or 10 μM Lenalidomide. Cells were incubated for 24 hrs or 72 hrs. The supernatant was taken and frozen for IL2 analysis. In one study, for the 72 hr culture, 100 pg/ml IL2 was added to the culture for the last 24 hrs. Primary NK cells were isolated the day of the co-culture setup. 100 μl of PBMC or pNK cells at the designated E:T ratios were transferred to the 96 well plate with the SUDHL4 cells and antibodies. The co-culture was incubated for 3 hrs or 4 hrs.
A total of 10e6 or 4e6 SUDHL4 cells were incubated with Calcein AM for 60 minutes. Cells were then washed 2× with 30 ml of media. Cells were counted, and resuspended to 0.15 e6/ml or 0.2 e6/ml, and in one study 40 ng/ml of IL2 was added. A total of 50 μl cells were then transferred to a 96 well plate. […] Effector cells were then added to the 96 well plate. The plate was then spun in a centrifuge without the brake at 200×g for 4 min, and the co-culture was incubated for 2 hrs, 3 hrs or 4 hrs. The plate was then spun without the brake at 1500 RPM for 4 min. 100 μl of the supernatant was moved to black 96 well plates (Corning, #3904) and fluorescence was recorded with a PerkinElmer Envision plate reader.

IL2 = IL2 production in PBMC treated with lenalidomide; type: cell-based; conditions: 72 hr lenalidomide, PBMC with and without CD3+ cells (FIG. 8)
Description: as §1

BAFF-R = target: T1, BAFF-R (Homo sapiens, UniProt Q96RJ3); assay: Phase Ib study CVAY736Y2102: tissue receptor occupancy; type: in vivo; conditions: VAY736 doses of 3 mg/kg or above, in combination with ibrutinib
T1 construct: from tissue

DLBCL cell line SUDHL4 = assay: in vivo DLBCL model: SUDHL4 implanted subcutaneously into SCID mice; conditions: 5 mg/kg or 50 mg/kg VAY736 intravenously weekly
Source text: Vehicle and rituximab were used as controls.

mature B cell = assay: repeat dose toxicity study in mice: healthy B-cell levels; type: in vivo, CD-1 mice
Description: CD-1 mice were administered 0 mg/kg or 100 mg/kg of ianalumab by intravenous administration weekly for 13 weeks, followed by an 11 week recovery period.

BAFF = assay: Phase Ib study CVAY736Y2102: free BAFF; type: in vivo, human; conditions: VAY736 in combination with ibrutinib
B cells [1] = assay: three repeated dose toxicity studies; type: in vivo, cynomolgus monkeys
Description: (§2) A rising single i.v. dose range finding (DRF), toxicity and TK/PD study and three repeated dose toxicity studies were performed with ianalumab in cynomolgus monkeys. B-cell levels were evaluated in the studies.

B cells [2] = type: in vivo, cynomolgus monkeys
Description: as §2

DLBCL = conditions: cited from earlier work

CC(C)C[C@H](NC(=O)[C@H](Cc1ccccc1)NC(=O)c1cnccn1)B(O)O [bortezomib]
response rates (MCL): improved response rates

C=CC(=O)N1CCC[C@@H](n2nc(-c3ccc(Oc4ccccc4)cc3)c3c(N)ncnc32)C1 [ibrutinib]
treatment-related adverse effects compared to temsirolimus (MCL; Phase III study): fewer treatment-related adverse effects

Nc1cccc2c1CN(C1CCC(=O)NC1=O)C2=O (stereo not drawn) [lenalidomide]
ADCC with lenalidomide pretreatment (SUDHL4 cells; NK3.3 effector cells, E:T 20:1 and 7:1, 72 hr and 48 hr pretreatment (FIGS. 5, 6)): Slight increases in ADCC | VAY736-induced ADCC with addition of lenalidomide (SUDHL4 cells; NK3.3 effector cells, more prominent with 72 hr pretreatment at E:T 20:1 (FIG. 2A-2B)): Increases in VAY736-induced ADCC | VAY736-induced ADCC with lenalidomide pretreatment (SUDHL4 cells; PBMC effector cells, 24 hrs pretreatment, E:T 2:1): only showed an enhancement at the highest concentration | VAY736-induced ADCC with lenalidomide pretreatment (SUDHL4 cells; PBMC effector cells, 24 hrs pretreatment, E:T 10:1): enhanced VAY736-induced ADCC | VAY736-induced ADCC with lenalidomide pretreatment (SUDHL4 cells; PBMC effector cells, 24 hrs pretreatment, E:T 20:1): only a slight enhancement | improvement in VAY736-induced ADCC with lenalidomide (SUDHL4 cells; PBMC effector cells, E:T 2:1): evident | improvement in VAY736-induced ADCC with lenalidomide (SUDHL4 cells; PBMC effector cells, E:T 6:1): less pronounced | VAY736-induced ADCC with lenalidomide (SUDHL4 cells; PBMC effector cells, 72 hr, E:T 3:1, largely dose-independent, hampered with IL2 stimulation): increased VAY736-induced ADCC | dependence of the ADCC enhancement by lenalidomide on CD3+ T cells (SUDHL4 cells; PBMC vs CD3+ depleted PBMC, 72 hr): dependent on the presence of CD3+ T cells | VAY736-induced ADCC with lenalidomide pretreatment (SUDHL4 cells; pNK cells isolated from PBMC pretreated 24 hrs, more so with 10:1 and 20:1): enhanced VAY736-induced ADCC | VAY736-induced ADCC with lenalidomide pretreatment (SUDHL4 cells; pNK cells, 72 hr Len pretreatment, E:T 1:1 and 1:3): enhanced VAY736-induced ADCC | VAY736-dependent percent specific lysis of SUDHL4 cells on addition of lenalidomide (SUDHL4 cells; various effector cells and treatment conditions): enhanced | ORR (MCL; heavily pre-treated population, Phase II study EMERGE): 28% | IL2 production in PBMC (IL2): IL2 produced by lenalidomide treatment by T cells

CO[C@H]1C[C@@H]2CC[C@@H](C)[C@@](O)(O2)C(=O)C(=O)N2CCCC[C@H]2C(=O)O[C@H]([C@H](C)C[C@@H]2CC[C@@H](OC(=O)C(C)(CO)CO)[C@H](OC)C2)CC(=O)[C@H](C)/C=C(\C)[C@@H](O)[C@@H](OC)C(=O)[C@H](C)C[C@H](C)/C=C/C=C/C=C/1C [temsirolimus]
response rates (MCL): improved response rates

VAY736: non-fucosylated human IgG1 kappa anti-BAFFR antibody with enhanced ADCC; heavy chain SEQ ID NO: 9, light chain SEQ ID NO: 10
ADCC in the presence of VAY736 (SUDHL4 cells; effector cells PBMC, pNK cells, NK3.3 cell line): potent ADCC | VAY736-dependent specific lysis of SUDHL4 cells, dose dependence (SUDHL4 cells; various effector cells): dose-dependent | tissue receptor occupancy (BAFF-R): > 99% | tumor growth compared to the vehicle control (tumor volume measurements over time) (DLBCL cell line SUDHL4): significantly slowed tumor growth | mature B cell depletion (mature B cell; 100 mg/kg intravenous weekly for 13 weeks): 70-90% | B cell levels during the recovery period (mature B cell; 11 week recovery period after 100 mg/kg weekly for 13 weeks): recovered | free BAFF (BAFF): accumulated to steady state with no dose relationship | B cell depletion (B cells [1]): B cell depletion was observed at all dose levels | tolerability (B cells [2]; cynomolgus monkey, in vivo): well tolerated | dose that induced depletion of B cells (B cells [2]; single i.v. dose): ≥ 0.4 mg/kg

blinatumomab: bispecific antibody
response rates (DLBCL; DLBCL): 35-50%

brentuximab vedotin
ORR (DLBCL; CD30+ relapsed DLBCL): 44%

polatuzumab vedotin
ORR (DLBCL; in combination with rituximab and bendamustine): 70%
